# Source: patent US20110033906A1 (priority 2009, published 2011)
# How the values were obtained:
# [1] = system: cellulase surface-displaying yeast (arming yeast); conditions: 120 hours after the start of fermentation
Compound,ethanol yield relative to theoretical yield [1],"ethanol obtained ([1]; crystalline cellulose (Avicel) pretreated with [Emim][DEP], arming yeast, ionic liquid present)",yeast survivability (live cell counts) (yeast (MT 8-1))
1-ethyl-3-methylimidazolium diethylphosphate [[Emim][DEP]],about 56%,1.43 g/L,–
"CCn1cc[n+](C)c1 [[Emim][Cl], 1-ethyl-3-methylimidazolium chloride]",–,–,not greatly affected
